In patent US11179348B2, “Combination comprising pterostilbene for the treatment of cancer” (FUNDACIÓN UNIVERSIDAD CATÓLICA DE VALENCIA SAN VICENTE …, priority 2015, dated 2021):
Marks after values point to notes of the source that are not given here.

Columns and labels:
MelJuso melanoma = assay: In vivo growth of MelJuso melanoma xenografts in nu/nu mice; parameters: species or system human
[1] = test system: HepG2 hepatocellular carcinoma; assay: In vivo growth of HepG2 liver cancer xenografts; parameters: species or system human; settings: HepG2, day 35
[2] = test system: SK-OV-3 epithelial ovarian carcinoma; assay: In vivo growth of SK-OV-3 ovarian cancer xenografts; parameters: species or system human; settings: SK-OV-3, day 49
[3] = Hematology, clinical chemistry and urinary balance in tumor-bearing mice treated with Pter; type: in vivo; settings: Pter 30 mg/kg i.v.

COc1cc(/C=C/c2ccc(O)cc2)cc(OC)c1 [Pter, trans-3,5-dimethoxy-4′-hydroxystilbene]
inhibition of tumor growth (MelJuso melanoma; MelJuso, day 42, 30 mg Pter/kg i.v. every 48 h, vs controls): ~49% | Tumor vol. (MelJuso melanoma; MelJuso-RFP, 35 days after inoculation, Pter 30 mg/kg i.v. every 48 h and/or CRC infusion 0.3 μg/h): 145 ± 35* mm^3 | Tumor vol. [1]: 375 ± 106* mm^3 | Tumor vol. [2]: 214 ± 83* mm^3 | % CD3 ([3]; A2058-bearing mice, day 35): 1.2 ± 0.2% | Alanine aminotransferase ([3]; A2058-bearing mice, day 35): 7.0 ± 1.6 IU/L | Albumin ([3]; A2058-bearing mice, day 35): 2.9 ± 0.6 g/dL | Alkaline phosphatase ([3]; A2058-bearing mice, day 35): 140 ± 21 IU/L | Aspartate aminotransferase ([3]; A2058-bearing mice, day 35): 140 ± 27 IU/L | B cells ([3]; A2058-bearing mice, day 35): 63.4 ± 7.7 | Basophils ([3]; A2058-bearing mice, day 35): 0.0 ± 0.0 10^3/μL | CD4 ([3]; A2058-bearing mice, day 35): 0.9 ± 0.1 | CD8 ([3]; A2058-bearing mice, day 35): 0.4 ± 0.05 | Chloride ([3]; A2058-bearing mice, day 35): 99 ± 10 mEq/L | Creatinine ([3]; A2058-bearing mice, day 35): 0.5 ± 0.1 mg/dL | Direct bilirubin ([3]; A2058-bearing mice, day 35): 0.1 ± 0.03 mg/dL | Eosinophils ([3]; A2058-bearing mice, day 35): 0.05 ± 0.02 10^3/μL | Erythrocytes ([3]; A2058-bearing mice, day 35): 7.0 ± 0.2^† 10^6/μL | GGT ([3]; A2058-bearing mice, day 35): 2.0 ± 0.5 IU/L | Glucose ([3]; A2058-bearing mice, day 35): 157 ± 19 mg/dL | Hematocrit ([3]; A2058-bearing mice, day 35): 34.4 ± 3.0% | Hemoglobin ([3]; A2058-bearing mice, day 35): 12.1 ± 0.4 g/dL | Isolated CD2^+ lymphocytes: Cell volume ([3]; A2058-bearing mice, day 35): 164 ± 15 μm^3 | Isolated CD2^+ lymphocytes: GSH ([3]; A2058-bearing mice, day 35): 4.3 ± 0.5 nmol/10^6 cells | Isolated CD2^+ lymphocytes: Glucose utilization ([3]; A2058-bearing mice, day 35): 1.24 ± 0.08 µmol/g/min | Isolated CD2^+ lymphocytes: Glutamine utilization ([3]; A2058-bearing mice, day 35): 3.35 ± 0.32 µmol/g/min | Isolated hepatocytes: Cell volume ([3]; A2058-bearing mice, day 35): 2.9 ± 0.2 μL/mg dry wt. | Isolated hepatocytes: GSH ([3]; A2058-bearing mice, day 35): 4760 ± 377 nmol/g of cells | Isolated hepatocytes: Glucose utilization ([3]; A2058-bearing mice, day 35): 1.57 ± 0.12 µmol/g/min | Lactate dehydrogenase ([3]; A2058-bearing mice, day 35): 251 ± 38 IU/L | Leukocytes ([3]; A2058-bearing mice, day 35): 2.2 ± 0.4 10^3/μL | Lymphocytes ([3]; A2058-bearing mice, day 35): 1.3 ± 0.2 10^3/μL | Monocytes ([3]; A2058-bearing mice, day 35): 0.04 ± 0.02* 10^3/μL | NK ([3]; A2058-bearing mice, day 35): 4.1 ± 1.5 | Neutrophils ([3]; A2058-bearing mice, day 35): 0.8 ± 0.2 10^3/μL | Plasma osmolality ([3]; A2058-bearing mice, day 35): 278 ± 15 mOsm/kg | Platelets ([3]; A2058-bearing mice, day 35): 393 ± 36 10^3/μL | Potassium ([3]; A2058-bearing mice, day 35): 7.7 ± 1.6 mEq/L | Sodium ([3]; A2058-bearing mice, day 35): 152 ± 20 mEq/L | Total bilirubin ([3]; A2058-bearing mice, day 35): 0.5 ± 0.1 mg/dL | Total protein ([3]; A2058-bearing mice, day 35): 3.9 ± 0.5 g/dL | Urea ([3]; A2058-bearing mice, day 35): 50.4 ± 3.1 mg/dL | Uric acid ([3]; A2058-bearing mice, day 35): 1.8 ± 0.4 mg/dL | Urinary balance: Bilirubin ([3]; A2058-bearing mice, day 35): Negative | Urinary balance: Erythrocytes ([3]; A2058-bearing mice, day 35): Negative | Urinary balance: GFR ([3]; A2058-bearing mice, day 35): 167 ± 30 µL/min | Urinary balance: Glucose ([3]; A2058-bearing mice, day 35): Normal | Urinary balance: Ketones ([3]; A2058-bearing mice, day 35): Negative | Urinary balance: Leukocytes ([3]; A2058-bearing mice, day 35): Negative | Urinary balance: Nitrite ([3]; A2058-bearing mice, day 35): Negative | Urinary balance: Protein ([3]; A2058-bearing mice, day 35): 0.2 g/L | Urinary balance: Urobilinogen ([3]; A2058-bearing mice, day 35): Normal | Urinary balance: pH ([3]; A2058-bearing mice, day 35): 7.7 ± 0.5 | % CD3 ([3]; AsPC-1-bearing mice, day 28): 0.9 ± 0.3% | Alanine aminotransferase ([3]; AsPC-1-bearing mice, day 28): 13.2 ± 3.5 IU/L | Albumin ([3]; AsPC-1-bearing mice, day 28): 3.0 ± 0.6 g/dL | Alkaline phosphatase ([3]; AsPC-1-bearing mice, day 28): 147 ± 18 IU/L | Aspartate aminotransferase ([3]; AsPC-1-bearing mice, day 28): 166 ± 27 IU/L | B cells ([3]; AsPC-1-bearing mice, day 28): 71.4 ± 11.4 | Basophils ([3]; AsPC-1-bearing mice, day 28): 0.0 ± 0.0 10^3/μL | CD4 ([3]; AsPC-1-bearing mice, day 28): 0.8 ± 0.1 | CD8 ([3]; AsPC-1-bearing mice, day 28): 0.2 ± 0.1 | Chloride ([3]; AsPC-1-bearing mice, day 28): 106 ± 9 mEq/L | Creatinine ([3]; AsPC-1-bearing mice, day 28): 0.5 ± 0.1 mg/dL | Direct bilirubin ([3]; AsPC-1-bearing mice, day 28): 0.1 ± 0.03 mg/dL | Eosinophils ([3]; AsPC-1-bearing mice, day 28): 0.04 ± 0.02 10^3/μL | Erythrocytes ([3]; AsPC-1-bearing mice, day 28): 6.2 ± 0.1^† 10^6/μL | GGT ([3]; AsPC-1-bearing mice, day 28): 2.3 ± 0.4 IU/L | Glucose ([3]; AsPC-1-bearing mice, day 28): 136 ± 20 mg/dL | Hematocrit ([3]; AsPC-1-bearing mice, day 28): 30.1 ± 1.5 % | Hemoglobin ([3]; AsPC-1-bearing mice, day 28): 12.0 ± 0.3 g/dL | Isolated CD2^+ lymphocytes: Cell volume ([3]; AsPC-1-bearing mice, day 28): 177 ± 14 μm^3 | Isolated CD2^+ lymphocytes: GSH ([3]; AsPC-1-bearing mice, day 28): 4.2 ± 0.6 nmol/10^6 cells | Isolated CD2^+ lymphocytes: Glucose utilization ([3]; AsPC-1-bearing mice, day 28): 1.23 ± 0.15 µmol/g/min | Isolated CD2^+ lymphocytes: Glutamine utilization ([3]; AsPC-1-bearing mice, day 28): 3.40 ± 0.12 µmol/g/min | Isolated hepatocytes: Cell volume ([3]; AsPC-1-bearing mice, day 28): 3.0 ± 0.3 μL/mg dry wt. | Isolated hepatocytes: GSH ([3]; AsPC-1-bearing mice, day 28): 4420 ± 444 nmol/g of cells | Isolated hepatocytes: Glucose utilization ([3]; AsPC-1-bearing mice, day 28): 1.50 ± 0.13 µmol/g/min | Lactate dehydrogenase ([3]; AsPC-1-bearing mice, day 28): 288 ± 30 IU/L | Leukocytes ([3]; AsPC-1-bearing mice, day 28): 1.9 ± 0.3* 10^3/μL | Lymphocytes ([3]; AsPC-1-bearing mice, day 28): 1.1 ± 0.2 10^3/μL | Monocytes ([3]; AsPC-1-bearing mice, day 28): 0.05 ± 0.02 10^3/μL | NK ([3]; AsPC-1-bearing mice, day 28): 2.7 ± 1.1 | Neutrophils ([3]; AsPC-1-bearing mice, day 28): 0.6 ± 0.2^† 10^3/μL | Plasma osmolality ([3]; AsPC-1-bearing mice, day 28): 278 ± 16 mOsm/kg | Platelets ([3]; AsPC-1-bearing mice, day 28): 312 ± 55^† 10^3/μL | Potassium ([3]; AsPC-1-bearing mice, day 28): 8.9 ± 1.7 mEq/L | Sodium ([3]; AsPC-1-bearing mice, day 28): 149 ± 14 mEq/L | Total bilirubin ([3]; AsPC-1-bearing mice, day 28): 0.5 ± 0.1 mg/dL | Total protein ([3]; AsPC-1-bearing mice, day 28): 3.5 ± 0.5 g/dL | Urea ([3]; AsPC-1-bearing mice, day 28): 52.4 ± 5.7 mg/dL | Uric acid ([3]; AsPC-1-bearing mice, day 28): 1.6 ± 0.3 mg/dL | Urinary balance: Bilirubin ([3]; AsPC-1-bearing mice, day 28): Negative | Urinary balance: Erythrocytes ([3]; AsPC-1-bearing mice, day 28): Negative | Urinary balance: GFR ([3]; AsPC-1-bearing mice, day 28): 186 ± 17 µL/min | Urinary balance: Glucose ([3]; AsPC-1-bearing mice, day 28): Normal | Urinary balance: Ketones ([3]; AsPC-1-bearing mice, day 28): Negative | Urinary balance: Leukocytes ([3]; AsPC-1-bearing mice, day 28): Negative | Urinary balance: Nitrite ([3]; AsPC-1-bearing mice, day 28): Negative | Urinary balance: Protein ([3]; AsPC-1-bearing mice, day 28): 0.3 g/L | Urinary balance: Urobilinogen ([3]; AsPC-1-bearing mice, day 28): Normal | Urinary balance: pH ([3]; AsPC-1-bearing mice, day 28): 7.7 ± 0.4
